Results: patent publication US20210283109A1, “HETEROCYCLIC DIAMIDINES” (Friedrich-Alexander-Universität Erlangen-Nürnberg, priority 2016, published 2021)

Legend:
[1] = test system: Dermal fibroblasts from patients with SSc; assay: Formazan toxicity assay of fibroblasts; type: cell-based, human; conditions: dermal fibroblasts from SSc patients cultured with different concentrations of compound
Method: (§1) Dermal fibroblasts from patients with SSc were cultured in the presence of DB1976. […] Moreover, in the presence of DB1976 differentiation of fibroblasts into matrix-producing myofibroblasts is inhibited (FIG. 3C). Bleomycin induced skin fibrosis was induced by local injections of bleomycin in C57Bl/6 mice (10 weeks of age, mixed genders) for four weeks. Subcutaneous injections of 0.9% NaCl served as a control. DB1976 was administered into tail vein every second day in different concentrations (1 mg/kg body weight; 5 mg/kg body weight) after first application of bleomycin. […] Bleomycin-induced pulmonary fibrosis was induced by a single intratracheal application of bleomycin in C57Bl/6 mice (12 weeks of age, males) using a high pressure syringe (Penn-Century, Wyndmoor, Pa., USA). […]
(§2) (A) Formazan toxicity assay of fibroblasts incubated with different concentrations of DB1976 as indicated; (B) human diseased dermal fibroblasts untreated or stimulated with either TGF-β alone or TGF-β plus DB1976; collagen protein level and mRNA level of col1a1 relative to control. […] (C) Immune fluorescence microscopy of cultured fibroblasts as indicated; cells are stained with DAPI, alpha smooth muscle actin (αSMA) and stress fibers. Representative image of 5 independent experiments are shown. *p<0.05 determined by Student's t test according pretest for normality (D'Agostino-Pearson normality test).

[2] = test system: human diseased dermal fibroblasts; assay: Collagen release from fibroblasts after stimulation with TGF-β; type: cell-based; conditions: compared to TGF-β alone
Method: as §1
as §2, with “test). […]” for “test).”

[3] = test system: Dermal fibroblasts from patients with SSc; assay: Differentiation of fibroblasts into matrix-producing myofibroblasts (αSMA, stress fibers, immune fluorescence microscopy); type: cell-based, human; conditions: in the presence of compound
Method: as §1, §2

[4] = test system: Bleomycin induced skin fibrosis in C57Bl/6 mice; assay: Bleomycin induced skin fibrosis model; type: in vivo; conditions: tail vein every second day, 1 and 5 mg/kg body weight, bleomycin four weeks; concentration dependent
Method: (§3) Dermal fibroblasts from patients with SSc were cultured in the presence of DB1976. […] Moreover, in the presence of DB1976 differentiation of fibroblasts into matrix-producing myofibroblasts is inhibited (FIG. 3C). Bleomycin induced skin fibrosis was induced by local injections of bleomycin in C57Bl/6 mice (10 weeks of age, mixed genders) for four weeks. Subcutaneous injections of 0.9% NaCl served as a control. DB1976 was administered into tail vein every second day in different concentrations (1 mg/kg body weight; 5 mg/kg body weight) after first application of bleomycin. […] Bleomycin-induced pulmonary fibrosis was induced by a single intratracheal application of bleomycin in C57Bl/6 mice (12 weeks of age, males) using a high pressure syringe (Penn-Century, Wyndmoor, Pa., USA). Instillation of equal volumes of 0.9% NaCl served as a control. […] Carbon tetrachloride CCl4-induced hepatic fibrosis was induced by intraperitoneal (i.p.) injections of CCl4 in […] mice (14 weeks of age, mixed genders) (Palumbo-Zerr et al. Nature Medicine 21, 150-158 (2015)) twice weekly. […] DB1976 was also effective when initiated after fibrosis had already become manifest. In those experiments, mice were pre-challenged with bleomycin for 3 weeks to induce robust skin fibrosis. After 3 weeks, treatment with DB1976 was initiated, while injections with bleomycin were continued. […] Therapeutic application of DB1976 ameliorated skin thickness, collagen content and myofibroblast counts in the skin (FIG. 6A-F).
FIG. 4: Model of bleomycin induced skin fibrosis. (A) Representative images of trichrome staining of skin tissue from control mice (Wild-type (WT) treated with sodium chloride; n≥7), bleomycin treated mice (n=10) and mice treated with bleomycin and different concentrations of DB1976 (n≥8 each); (B;C) mRNA collagen1a1 or collagen1a2 expression; (D) dermal thickness; (E) quantification of α-smooth muscle actin-positive myofibroblasts; (F) hydroxyproline content.

[5] = test system: Bleomycin-induced pulmonary fibrosis in C57Bl/6 mice; assay: Bleomycin-induced pulmonary fibrosis model; type: in vivo; conditions: lung; compared to mice that received bleomycin without compound
Method: as §3
(§4) FIG. 5: Model of bleomycin induced lung and CCI-4 induced liver fibrosis. (A) Representative images of sirius red staining of lung tissue from control mice (Wild-type (WT) treated with sodium chloride; n=4), bleomycin treated mice (n≥7) and mice treated with bleomycin and DB1976 (n=≥5); (B) quantification of the fibrotic area; (C, D) mRNA expression level of col1a1 and col1a2; (E) hydroxyproline content.

[6] = test system: CCl4-induced hepatic fibrosis in mice; assay: Carbon tetrachloride CCl4-induced hepatic fibrosis model; type: in vivo; conditions: CCl4 i.p. twice weekly
Method: as §3, §4

[7] = test system: pre-established bleomycin induced skin fibrosis in mice; assay: Regression of pre-established bleomycin induced skin fibrosis; type: in vivo; conditions: 6 weeks of bleomycin, treatment for the last 3 weeks
Method: as §3
FIG. 6: Regression of pre-established bleomycin induced skin fibrosis by treatment with DB1976. Mice were pre-challenged with bleomycin for 3 weeks to induce robust skin fibrosis. After 3 weeks, treatment with DB1976 was initiated, while injections with bleomycin were continued. After a total of 6 weeks of bleomycin and 3 weeks of treatment with DB1976, the extent of fibrosis was assessed. (A) Representative images of trichrome staining of skin tissue from control mice (Wild-type (WT) treated with sodium chloride; n≥4), 3 weeks bleomycin and afterwards 3 weeks sodium chloride treated mice (n≥8), bleomycin treated mice (n≥8) and mice treated with bleomycin and different concentrations of DB1976 (n≥3 each); (B;C) mRNA expression level of col1a1 and col1a2; (D) dermal thickness; (E) quantification of α-smooth muscle actin-positive myofibroblasts; (F) hydroxyproline content.

mice = assay: Tolerability of treatment in mice; type: in vivo
Method: Dermal fibroblasts from patients with SSc were cultured in the presence of DB1976. […] Moreover, in the presence of DB1976 differentiation of fibroblasts into matrix-producing myofibroblasts is inhibited (FIG. 3C). Bleomycin induced skin fibrosis was induced by local injections of bleomycin in C57Bl/6 mice (10 weeks of age, mixed genders) for four weeks. Subcutaneous injections of 0.9% NaCl served as a control. DB1976 was administered into tail vein every second day in different concentrations (1 mg/kg body weight; 5 mg/kg body weight) after first application of bleomycin. […] Bleomycin-induced pulmonary fibrosis was induced by a single intratracheal application of bleomycin in C57Bl/6 mice (12 weeks of age, males) using a high pressure syringe (Penn-Century, Wyndmoor, Pa., USA). Instillation of equal volumes of 0.9% NaCl served as a control. […] Carbon tetrachloride CCl4-induced hepatic fibrosis was induced by intraperitoneal (i.p.) injections of CCl4 in […] mice (14 weeks of age, mixed genders) (Palumbo-Zerr et al. Nature Medicine 21, 150-158 (2015)) twice weekly. […] DB1976 was also effective when initiated after fibrosis had already become manifest. In those experiments, mice were pre-challenged with bleomycin for 3 weeks to induce robust skin fibrosis. After 3 weeks, treatment with DB1976 was initiated, while injections with bleomycin were continued. […]

apoptosis = assay: Apoptosis by staining for cleaved caspase-3 or TUNEL assays
[8] = test system: Cancer associated fibroblasts (CAFs); assay: Matrix production of cancer associated fibroblasts activated by TGF-β; type: cell-based, human; conditions: cultured with compound for 96 h, compared to CAFs without compound
Text: Cancer associated fibroblasts (CAFs) are associated with cancer cells at all stages of cancer progression, and their structural and functional contributions to this process are well known. This implies that CAFs have a prominent role in the progression, growth and spread of cancers and represent an important target for cancer therapies.
FIG. 7: DB1976 inhibits collagen production of cancer associated fibroblasts (CAFs). (A) Quantification of PU.1-expressing fibroblasts in healthy colon tissue compared to tumor tissue (colorectal carcinoma). Cells are counted per high power field (HPF). (B) collagen production of CAFs assessed by western blot analysis; PU.1, collagen and β-actin expression in response to stimulation w/o TGF-β in the presence and absence of DB1976; representative blots of 6 independent experiments are shown. […] (C) Immune fluorescence microscopy of fibroblasts from healthy tissue (HC) and CAFs cultured w/o DB1976; DAPI and alpha smooth muscle actin (αSMA) are stained. Representative images of 5 independent experiments are shown. *p<0.05; **p<0.01 determined by Mann-Whitney U-test for non-parametric data.

PU.1 = conditions: cited from earlier work

N=C(N)c1ccc2nc(-c3ccc(-c4nc5ccc(C(=N)N)cc5[nH]4)[se]3)[nH]c2c1 [DB1976]
toxic effects in formazan toxicity assays [1]: did not observe toxic effects | collagen release from fibroblasts [2]: strong reduction | differentiation of fibroblasts into matrix-producing myofibroblasts [3]: inhibited | collagen release assessed by col1a2 mRNA expression [4]: significantly decreased | collagen release assessed by hydroxyproline content of the skin [4]: significantly decreased | myofibroblast differentiation [4]: significantly decreased | skin thickening [4]: significantly decreased | Ashcroft score [5]: reduced | collagen expression (hydroxyproline content) [5]: decreased | collagen expression (mRNA) [5]: decreased | myofibroblast count [5]: decreased | volume of fibrotic area [5]: decreased | fibrotic tissue remodeling of the liver [6]: significant less | collagen production ([6]; liver): less | myofibroblast differentiation ([6]; liver): less | collagen content in the skin [7]: ameliorated | myofibroblast counts in the skin [7]: ameliorated | skin thickness [7]: ameliorated | extent of fibrosis ([7]; compared to controls): significantly reduced | clinical evidence of toxicity (mice): no clinical evidence of toxicity | tolerability of treatment (mice): well-tolerated | apoptosis by TUNEL assays (apoptosis): did not detect any evidence of apoptosis | apoptosis in staining for cleaved caspase-3 (apoptosis): did not detect any evidence of apoptosis | alpha smooth muscle actin (αSMA) [8]: significant reduction | collagen production [8]: significant reduction | stress fiber expression [8]: significant reduction | inhibition of PU.1-binding to the DNA of PU.1 target genes (PU.1): potent inhibitor
